Data reported in ChEMBL document CHEMBL1201862, “PubChem BioAssay data set” (2004).
Calls of active or inactive are those of the source.

Legend:
[1] = target: FAD-linked sulfhydryl oxidase ALR (Homo sapiens, UniProt P55789); test: inhibitors of human ALR sulfhydryl oxidase, dose response, biochemical, H2O2 detection, luminescence, cherry-pick (AID 493248)
[2] = target: T1, Rac GTPase-activating protein 1 (Homo sapiens, UniProt Q9H0H5); test: MgcRacGAP GTPase-activating activity inhibitors, confirmation, biochemical, ADP Hunter fluorescence, primary and confirmatory (AID 624330); type: functional
T1 sequence (Q9H0H5 whole entry): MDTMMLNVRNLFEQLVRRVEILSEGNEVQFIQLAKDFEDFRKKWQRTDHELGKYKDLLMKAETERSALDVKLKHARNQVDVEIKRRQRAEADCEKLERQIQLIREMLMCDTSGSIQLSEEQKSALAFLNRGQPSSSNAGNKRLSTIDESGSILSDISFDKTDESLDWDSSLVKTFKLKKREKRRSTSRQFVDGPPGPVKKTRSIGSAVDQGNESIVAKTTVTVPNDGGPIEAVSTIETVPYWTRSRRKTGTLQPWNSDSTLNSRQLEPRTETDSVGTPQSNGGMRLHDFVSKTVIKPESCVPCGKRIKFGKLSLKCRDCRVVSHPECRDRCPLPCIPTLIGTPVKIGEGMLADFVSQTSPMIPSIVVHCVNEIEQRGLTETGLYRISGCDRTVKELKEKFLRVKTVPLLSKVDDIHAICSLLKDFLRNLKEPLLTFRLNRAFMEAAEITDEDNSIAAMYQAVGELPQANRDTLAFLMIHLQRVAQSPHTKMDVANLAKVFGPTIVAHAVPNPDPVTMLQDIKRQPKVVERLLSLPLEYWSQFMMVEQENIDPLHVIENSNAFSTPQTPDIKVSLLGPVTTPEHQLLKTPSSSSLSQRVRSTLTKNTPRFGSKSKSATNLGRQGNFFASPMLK

[3] = target: T2, Sentrin-specific protease 8 (Homo sapiens, UniProt Q96LD8); type: functional
T2 sequence (Q96LD8 whole entry): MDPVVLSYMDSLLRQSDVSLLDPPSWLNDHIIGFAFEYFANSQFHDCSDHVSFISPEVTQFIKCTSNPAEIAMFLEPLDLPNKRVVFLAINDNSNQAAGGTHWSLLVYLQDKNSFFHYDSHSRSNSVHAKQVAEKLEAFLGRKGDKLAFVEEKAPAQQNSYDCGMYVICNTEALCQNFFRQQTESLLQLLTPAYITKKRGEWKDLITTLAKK

[4] = target: T2, Sentrin-specific protease 8; type: functional; remark: listed apart in the source
[5] = target: T3, Replicative DNA helicase DnaB (Mycobacterium tuberculosis, UniProt P9WMR3); test: DnaB intein splicing inhibitors, dose response, biochemical, cell-free fluorescence (AID 449749); type: functional
T3 sequence (P9WMR3 whole entry): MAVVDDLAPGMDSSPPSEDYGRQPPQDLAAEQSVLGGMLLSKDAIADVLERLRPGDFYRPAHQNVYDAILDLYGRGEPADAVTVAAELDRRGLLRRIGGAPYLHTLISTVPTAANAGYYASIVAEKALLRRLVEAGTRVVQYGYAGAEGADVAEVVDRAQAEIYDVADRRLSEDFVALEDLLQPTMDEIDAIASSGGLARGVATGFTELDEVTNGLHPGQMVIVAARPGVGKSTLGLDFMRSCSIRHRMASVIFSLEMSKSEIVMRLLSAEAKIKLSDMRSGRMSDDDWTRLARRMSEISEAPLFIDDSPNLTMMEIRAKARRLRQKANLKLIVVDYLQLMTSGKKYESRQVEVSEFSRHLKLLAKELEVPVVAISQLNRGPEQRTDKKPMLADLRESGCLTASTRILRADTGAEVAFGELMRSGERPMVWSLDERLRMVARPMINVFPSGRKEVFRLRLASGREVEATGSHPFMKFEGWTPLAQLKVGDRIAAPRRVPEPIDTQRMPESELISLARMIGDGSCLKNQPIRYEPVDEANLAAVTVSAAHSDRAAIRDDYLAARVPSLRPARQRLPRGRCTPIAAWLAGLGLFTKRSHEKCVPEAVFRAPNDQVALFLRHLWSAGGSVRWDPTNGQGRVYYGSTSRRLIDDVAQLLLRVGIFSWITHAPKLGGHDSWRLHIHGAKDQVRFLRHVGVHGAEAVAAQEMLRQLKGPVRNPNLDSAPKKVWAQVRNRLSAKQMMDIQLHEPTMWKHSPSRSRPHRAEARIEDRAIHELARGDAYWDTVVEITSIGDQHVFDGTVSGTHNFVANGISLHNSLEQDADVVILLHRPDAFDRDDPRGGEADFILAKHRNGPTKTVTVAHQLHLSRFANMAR

Protein RecA = target: T4, Protein RecA (Mycobacterium tuberculosis, UniProt P9WHJ3); test: Fluorescence Cell-Free Homogeneous Dose Retest to Identify Inhibitors of RecA-Intein Splicing Activity. [Related pubchem assays (depositor defined):AID2097, AID2223, AID489010, AID492950]; type: functional
T4 sequence (P9WHJ3 whole entry): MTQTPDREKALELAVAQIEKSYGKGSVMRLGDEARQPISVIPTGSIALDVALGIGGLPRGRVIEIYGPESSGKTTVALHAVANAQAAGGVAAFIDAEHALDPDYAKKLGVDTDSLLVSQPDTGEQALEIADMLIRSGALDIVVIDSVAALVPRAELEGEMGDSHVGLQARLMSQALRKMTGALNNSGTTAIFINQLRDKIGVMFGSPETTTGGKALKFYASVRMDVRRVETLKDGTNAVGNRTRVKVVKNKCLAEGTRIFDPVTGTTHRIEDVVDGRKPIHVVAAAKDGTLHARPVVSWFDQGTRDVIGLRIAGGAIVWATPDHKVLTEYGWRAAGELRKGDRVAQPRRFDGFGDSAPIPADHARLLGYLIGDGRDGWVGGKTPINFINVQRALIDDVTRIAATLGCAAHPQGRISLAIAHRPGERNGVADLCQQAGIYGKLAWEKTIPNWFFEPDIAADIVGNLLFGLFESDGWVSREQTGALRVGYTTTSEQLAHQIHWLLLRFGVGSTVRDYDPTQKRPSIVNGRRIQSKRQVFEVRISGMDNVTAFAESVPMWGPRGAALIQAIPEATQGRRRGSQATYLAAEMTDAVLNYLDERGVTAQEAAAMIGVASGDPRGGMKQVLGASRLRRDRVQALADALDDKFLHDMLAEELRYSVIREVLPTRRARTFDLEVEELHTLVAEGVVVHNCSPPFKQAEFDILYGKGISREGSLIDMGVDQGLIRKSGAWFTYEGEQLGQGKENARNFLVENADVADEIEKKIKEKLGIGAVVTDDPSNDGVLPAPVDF

[6] = cytotoxicity in HEK-293T cells, dose response, cytotoxicity control for TCR NF-kB inhibitor project, luminescence, T-cell screen hits (AID 489026); type: functional, cell-based;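 note: cells exposed to compound about 14 hours before the viability readout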
Cytochrome P450 3A4 = Cytochrome P450 3A4 (Homo sapiens, UniProt P08684);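 note: CYP3A4 tested as one member of a cytochrome P450 panel screen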
Chain of Cytochrome P450 3A4 (P08684 whole entry): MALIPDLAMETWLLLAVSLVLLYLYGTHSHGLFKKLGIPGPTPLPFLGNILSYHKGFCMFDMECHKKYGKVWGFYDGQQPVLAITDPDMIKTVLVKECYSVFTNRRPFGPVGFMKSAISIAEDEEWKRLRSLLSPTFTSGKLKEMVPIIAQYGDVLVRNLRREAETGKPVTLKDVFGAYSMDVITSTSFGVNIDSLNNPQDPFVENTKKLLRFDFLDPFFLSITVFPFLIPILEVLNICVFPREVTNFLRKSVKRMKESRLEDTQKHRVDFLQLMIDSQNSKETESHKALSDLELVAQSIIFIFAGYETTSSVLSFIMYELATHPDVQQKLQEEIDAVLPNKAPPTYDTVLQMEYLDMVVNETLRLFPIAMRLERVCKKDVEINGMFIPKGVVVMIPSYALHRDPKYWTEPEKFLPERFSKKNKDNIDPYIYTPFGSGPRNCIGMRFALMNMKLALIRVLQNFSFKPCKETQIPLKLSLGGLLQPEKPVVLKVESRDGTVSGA

Cytochrome P450 2C9 = Cytochrome P450 2C9 (Homo sapiens, UniProt P11712)
Chain of Cytochrome P450 2C9 (P11712 whole entry): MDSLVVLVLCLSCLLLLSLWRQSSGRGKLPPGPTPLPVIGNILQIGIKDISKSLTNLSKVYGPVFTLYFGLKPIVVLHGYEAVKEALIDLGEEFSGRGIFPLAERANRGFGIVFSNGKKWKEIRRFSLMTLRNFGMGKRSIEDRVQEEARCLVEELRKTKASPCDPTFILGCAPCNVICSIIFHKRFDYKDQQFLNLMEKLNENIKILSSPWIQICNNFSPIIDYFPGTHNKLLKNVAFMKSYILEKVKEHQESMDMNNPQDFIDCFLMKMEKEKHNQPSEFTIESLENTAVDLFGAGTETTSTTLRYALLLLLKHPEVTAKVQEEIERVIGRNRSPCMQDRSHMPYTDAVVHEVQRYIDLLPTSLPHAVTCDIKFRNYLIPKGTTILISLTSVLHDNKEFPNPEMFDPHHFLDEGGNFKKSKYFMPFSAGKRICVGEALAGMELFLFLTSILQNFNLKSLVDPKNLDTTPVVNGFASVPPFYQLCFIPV

Cytochrome P450 2C19 = Cytochrome P450 2C19 (Homo sapiens, UniProt P33261); test: Cytochrome panel assay with activity outcomes. Panel member name: p450-cyp2c19 Compounds with AC50 equal or less than 10 uM are considered active; type: functional; conditions: read-out: AC50
Chain of Cytochrome P450 2C19 (P33261 whole entry): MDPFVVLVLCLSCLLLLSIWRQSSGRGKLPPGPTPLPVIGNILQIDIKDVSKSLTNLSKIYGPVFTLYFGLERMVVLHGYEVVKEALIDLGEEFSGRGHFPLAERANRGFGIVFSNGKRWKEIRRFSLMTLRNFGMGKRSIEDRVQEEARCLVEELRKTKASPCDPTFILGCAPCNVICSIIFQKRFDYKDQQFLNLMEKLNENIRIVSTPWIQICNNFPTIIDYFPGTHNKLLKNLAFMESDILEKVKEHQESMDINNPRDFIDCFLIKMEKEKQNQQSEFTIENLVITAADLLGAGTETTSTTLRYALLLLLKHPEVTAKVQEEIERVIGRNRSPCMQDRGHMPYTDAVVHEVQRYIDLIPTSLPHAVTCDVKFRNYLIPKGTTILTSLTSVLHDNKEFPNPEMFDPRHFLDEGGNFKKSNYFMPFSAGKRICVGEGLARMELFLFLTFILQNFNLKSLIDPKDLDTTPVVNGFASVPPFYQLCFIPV

BJ [7] = test: cells; type: functional, cell-based; conditions: Homo sapiens
BJ [8] = test: cytotoxicity toward BJ-TERT-LT-ST fibroblasts, dose response, cell-based, RAS-independent, luminescence (AID 1935); type: functional; conditions: Homo sapiens;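 note: BJ fibroblasts immortalized with TERT plus LT and ST oncogenes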
BJ [9] = test: cytotoxicity toward BJ-TERT fibroblasts, dose response, cell-based, RAS-independent, luminescence (AID 1933); type: functional; conditions: Homo sapiens
[10] = cytotoxicity toward DRD oncogenic fibroblasts, dose response, cell-based, non-viral oncogenic, luminescence (AID 1934); type: functional; conditions: Homo sapiens
[11] = target: Dual specificity tyrosine-phosphorylation-regulated kinase 1A (Rattus norvegicus, UniProt Q63470); type: biochemical, Homo sapiens
SN12K1 = test: cells; type: functional; conditions: Homo sapiens
P388 = test: cells; type: functional; conditions: Mus musculus
P388/ADR = test: cells; type: functional; conditions: Mus musculus
Cytochrome P450 1A2 = target: T5, Cytochrome P450 1A2 (Homo sapiens, UniProt P05177);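 note: PubChem cytochrome P450 panel assay, CYP1A2 panel member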
T5 sequence (P05177 whole entry): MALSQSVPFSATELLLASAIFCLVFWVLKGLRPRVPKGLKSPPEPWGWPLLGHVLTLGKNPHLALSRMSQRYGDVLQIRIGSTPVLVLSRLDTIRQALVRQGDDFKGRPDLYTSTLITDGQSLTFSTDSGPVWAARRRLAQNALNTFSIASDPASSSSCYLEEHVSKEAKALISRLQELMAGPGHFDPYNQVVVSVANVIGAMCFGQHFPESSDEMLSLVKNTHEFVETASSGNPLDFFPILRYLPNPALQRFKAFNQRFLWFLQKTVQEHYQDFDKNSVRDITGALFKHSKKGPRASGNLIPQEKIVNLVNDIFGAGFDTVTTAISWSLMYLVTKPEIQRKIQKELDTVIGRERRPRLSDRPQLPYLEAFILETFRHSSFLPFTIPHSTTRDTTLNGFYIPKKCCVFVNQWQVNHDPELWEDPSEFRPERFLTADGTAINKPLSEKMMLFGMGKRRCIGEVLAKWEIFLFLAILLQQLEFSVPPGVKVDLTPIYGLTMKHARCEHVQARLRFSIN

[12] = HEp-2 cell cytotoxicity, dose response, cytotoxicity control for RSV inhibitor project, HTS (AID 2410); type: functional; conditions: human respiratory syncytial virus

Chain of FAD-linked sulfhydryl oxidase ALR (P55789 whole entry): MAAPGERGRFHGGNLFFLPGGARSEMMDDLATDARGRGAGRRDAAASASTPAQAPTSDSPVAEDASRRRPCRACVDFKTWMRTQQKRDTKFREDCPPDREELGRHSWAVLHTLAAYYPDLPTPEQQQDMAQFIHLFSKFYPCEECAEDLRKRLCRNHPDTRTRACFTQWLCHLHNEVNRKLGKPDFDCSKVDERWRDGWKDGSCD

## CN(C)c1ccc(C(=O)NC2(N3CCC3=O)CCCC2)cc1
[1]
  AC50: 2.55 µM (active)
[2]
  IC50: 126 µM (active)

## COc1cccc(N/C([S-])=C(/C(=O)c2ccc(OC(F)F)cc2)[n+]2ccccc2)c1
[3]
  IC50: 3.93 µM (active)
[4]
  IC50: 6 µM (active)
[5]
  AC50: 23.9 µM (active)
Protein RecA
  EC50: 8.62 µM (active)

## Cc1ccccc1NS(=O)(=O)c1ccc(N2CCCC2=O)cc1
[6]
  IC50: > 80 µM (inactive)

## CCN(CC)S(=O)(=O)c1ccc2c3c(cccc13)C(=O)S2
Cytochrome P450 3A4
  AC50: 17.8 µM (inconclusive)
Cytochrome P450 2C9
  AC50: inconclusive

## Brc1[nH]nc2ccccc12
Cytochrome P450 2C9
  AC50: inconclusive
Cytochrome P450 2C19
  AC50: 11.2 µM (inconclusive)

## COc1ccc(Cl)cc1NC(=O)CN(C)CC(=O)Nc1ccccc1N1CCOCC1
BJ [7]
  EC50: 37.1 µM (active)
[6]
  IC50: 70.8 µM (inactive)
BJ [8]
  EC50: 30.7 µM (active)
BJ [9]
  EC50: 3.04 µM (active)
[10]
  EC50: 2.55 µM (active)

## COc1ccc(NC(=O)/C(C#N)=C\c2ccc(-c3cccc(C(=O)O)c3C)o2)cc1
[11]
  AC50: 1.7 µM (active)

## O=S(=O)(O)c1cccc(N=Nc2c(O)ccc3ccccc23)c1
[11]
  AC50: 5.88 µM (active)

## Cc1nc(NC(N)=Nc2ccccc2)nc2ccccc12
Cytochrome P450 3A4
  AC50: 39.8 µM (inconclusive)
Cytochrome P450 2C9
  AC50: inconclusive
Cytochrome P450 2C19
  AC50: 39.8 µM (inconclusive)

## Cc1nc2c(ccc3nsnc32)[nH]1
[11]
  AC50: 5.91 µM (active)

## COc1cc(C)c(Br)cc1S(=O)(=O)NCc1ccccc1
Cytochrome P450 2C9
  AC50: inconclusive

## COC(=O)c1ccc(C)cc1C1CN=NC12Cc1cc(C)ccc1C2=O (stereo unspecified)
[3]
  IC50: 13.9 µM (active)
[4]
  IC50: 20.9 µM (active)

## COc1ccccc1/C=C1\CCC(CN(C)C)C1=O (stereo unspecified)
SN12K1
  GI50: 2.05 µM (inactive)
P388
  GI50: 0.608 µM (active)
P388/ADR
  GI50: 0.568 µM (active)

## C#CCn1c(=O)c(C#N)c(O)c2cc3ccccc3nc21
SN12K1
  GI50: > 100 µM (inactive)
P388
  GI50: > 100 µM (inactive)
P388/ADR
  GI50: > 100 µM (inactive)

## O=C1NC(c2cccc3ccccc23)Nc2ccc(O)cc21 (stereo unspecified)
SN12K1
  GI50: 36.7 µM (inactive)
P388
  GI50: 19 µM (inactive)
P388/ADR
  GI50: 24.8 µM (inactive)

## COc1cccc2c1C(=O)c1c(O)c3c(c(O)c1C2=O)C[C@@](O)(C(C)=O)C[C@@H]3OC1CC(N(Cc2ccccc2)Cc2ccccc2)C(O)C(C)O1 (stereo partly specified)
SN12K1
  GI50: 2.92 µM (inactive)
P388
  GI50: 0.675 µM (active)
P388/ADR
  GI50: 1.57 µM (inactive)

## Cc1ccc(/C=N/NC(=O)c2c(C)nc3ccc(Br)cn23)cc1
[6]
  IC50: > 80 µM (inactive)

## CCCCC(NC(=O)CC)C(=O)O (stereo unspecified)
SN12K1
  GI50: > 100 µM (inactive)
P388
  GI50: > 100 µM (inactive)
P388/ADR
  GI50: > 100 µM (inactive)

## COC(=O)C1OC(Oc2cc(O)c3c(=O)cc(-c4ccc(O)cc4)oc3c2)C(O)C(O)C1O (stereo unspecified)
SN12K1
  GI50: > 100 µM (inactive)
P388/ADR
  GI50: > 35.5 µM (inactive)

## Cc1[nH]n(-c2ccccc2)c(=O)c1CCOC(=O)c1cccc(C(F)(F)F)c1
Cytochrome P450 1A2
  AC50: 22.4 µM (inconclusive)
Cytochrome P450 2C9
  AC50: inconclusive

## Sc1nnc(-c2ccccn2)n1/N=C/c1ccc(-c2ccccc2Cl)o1
[12]
  CC50: > 50 µM (active)
[1]
  AC50: 5.29 µM (active)

## COc1ccc(-c2csc(N=C(N)N)n2)cc1
[11]
  AC50: 0.541 µM (active)

## CCCCC1=C(Br)C(=C(Br)Br)OC1=O
SN12K1
  GI50: 1.96 µM (inactive)
P388
  GI50: 0.505 µM (active)
P388/ADR
  GI50: 0.443 µM (active)

## C[C@H]1C/C=C/[C@H]2[C@@H]3O[C@]3(C)[C@@H](C)[C@H]3[C@H](Cc4ccccc4)NC(=O)[C@]32OC(=O)O/C=C/[C@@](C)(O)C1=O [CYTOCHALASIN E]
SN12K1
  GI50: < 0.01 µM (active)
P388
  GI50: 0.0166 µM (active)

## Cc1c2cc[n+](C)cc2c(C)c2c1[nH]c1ccc(O)cc12 [ELLIPTINIUM ACETATE]
SN12K1
  GI50: 2.98 µM (inactive)
P388
  GI50: 0.131 µM (active)
P388/ADR
  GI50: 1.92 µM (inactive)
